Experiments:
CDK2/cyclin A = target: T1, CDK2/cyclin A (Homo sapiens, UniProt P24941); assay: Inhibition of CDK2/cyclin A retinoblastoma kinase activity (Ki; % inhibition); assay type: biochemical; conditions: for Ki: apparent Ki, CDK2/cyclin A, Rb substrate
T1 construct: made in house; host or cells: CDK2: insect cells (baculovirus); cyclin A: E. coli
Summary of the method: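 Apparent Ki values came from fitting concentration-dependent activity data to competitive (or competitive tight-binding) models, and % inhibition from single 30 nM screens of library compounds. Activity was measured as ³²P/³³P incorporation from 25 μM ATP into an Rb substrate by 10 or 19 nM CDK2/delta cyclin A at 30 °C over 60–75 min, pH 7.4.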

human CDK4/cyclin D3 = target: T2, human CDK4/cyclin D3 (Homo sapiens, UniProt P11802); assay: Inhibition of CDK4/cyclin D retinoblastoma kinase activity (Ki; % inhibition); assay type: biochemical; conditions: for Ki: apparent Ki, CDK4/cyclin D3, Rb substrate
T2 construct: made in house; host or cells: insect cells co-infected with baculovirus vectors
T2 sequence (P11802 whole entry): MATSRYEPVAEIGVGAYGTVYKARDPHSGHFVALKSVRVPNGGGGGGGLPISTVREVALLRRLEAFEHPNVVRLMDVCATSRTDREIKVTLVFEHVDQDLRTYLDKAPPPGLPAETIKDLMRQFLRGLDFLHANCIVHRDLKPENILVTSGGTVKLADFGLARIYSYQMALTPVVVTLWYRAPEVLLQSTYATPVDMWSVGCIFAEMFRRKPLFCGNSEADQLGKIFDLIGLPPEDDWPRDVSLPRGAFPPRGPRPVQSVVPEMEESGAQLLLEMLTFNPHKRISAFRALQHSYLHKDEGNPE
T2 sequence (P30281 1-264 partner limits assumed): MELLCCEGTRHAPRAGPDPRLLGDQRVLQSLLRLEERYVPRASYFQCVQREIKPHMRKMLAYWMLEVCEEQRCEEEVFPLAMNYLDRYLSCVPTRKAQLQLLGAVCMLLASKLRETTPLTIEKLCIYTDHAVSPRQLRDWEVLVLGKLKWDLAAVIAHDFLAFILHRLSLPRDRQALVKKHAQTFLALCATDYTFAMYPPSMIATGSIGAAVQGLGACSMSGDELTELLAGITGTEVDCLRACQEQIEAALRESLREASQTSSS
Summary of the method: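 Radiometric filter-binding read-out: Rb residues 386-928 phosphorylated by 5 nM CDK4/cyclin D3(1-264) from baculovirus-infected insect cells, 25 μM ATP, HEPES pH 7.4, 30 °C. Run 20 min, or 60 min for tight-binding inhibitors. Screening at 30 nM theoretical compound; apparent Ki by competitive-inhibition fitting.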

HCT-116 cell line = assay: Inhibition of cell growth, MTT tetrazolium salt assay; assay type: cell-based; conditions: for IC50: Homo sapiens, HCT-116, 120 h, MTT, three to five days
Summary of the method: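 Growth inhibition was read as MTT-formazan absorbance at 540 nm, after 4 h with 0.2 mg/mL MTT. Before that, HCT-116 cells had been exposed 3–5 days at 37 °C to compounds in 0.5% (v/v) DMSO, added 4 h after plating. 50% and 90% inhibitory concentrations were taken from semi-log concentration–inhibition plots versus vehicle controls.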

[1] = HCT-116 cells, 0.25 μM compound

SMILES | CDK2 % Inhibition at 0.03 μM (CDK2/cyclin A; at 0.03 μM) [%] | CDK4 % Inhibition at 0.03 μM (human CDK4/cyclin D3; at 0.03 μM) [%] | CDK2 % Inhibition at 0.03 μM (CDK2/cyclin A; 0.03 μM compound) [%] | CDK4 % Inhibition at 0.03 μM (human CDK4/cyclin D3; 0.03 μM compound) [%] | HCT-116 % Inhibition at 0.25 μM (HCT-116 cell line; HCT-116, at 0.25 μM) [%] | HCT-116 % Inhibition at 0.1 μM (HCT-116 cell line; HCT-116 cells, 0.1 μM compound) [%] | HCT-116 % Inhibition at 0.25 μM (HCT-116 cell line; [1]) [%] | other results
CCN(CC)CCNC(=O)c1ccc(Nc2nc(N)c(C(=O)c3c(F)cccc3F)s2)cc1 [Example G157] | 18 | 30 |  |  | 87 |  |  | HCT-116 % Inhibition at 0.1 μM (HCT-116 cell line; HCT-116, at 0.1 μM): 0%
CC[C@H](C)[C@@H](CO)NC(=O)c1ccc(Nc2nc(N)c(C(=O)c3c(F)cccc3F)s2)cc1 [Example G327] |  |  | −7 | 11 |  | 8 | 55 | 
Cc1ccc(NC(=O)c2ccc(Nc3nc(N)c(C(=O)c4c(F)cccc4F)s3)cc2)nc1 [Example G352] |  |  | 4 | 0 |  | 24 | 64 | 
CCOC(CCCNC(=O)c1ccc(Nc2nc(N)c(C(=O)c3c(F)cccc3F)s2)cc1)OCC [Example G392] |  |  | 12 | −2 |  | 8 | 49 | 
CN(C)CCCCNC(=O)c1ccc(Nc2nc(N)c(C(=O)c3c(F)cccc3F)s2)cc1 [Example G93] | −4 | 11 |  |  | 58 |  |  | HCT-116 % Inhibition at 0.1 μM (HCT-116 cell line; HCT-116, at 0.1 μM): 26%
Nc1nc(Nc2ccc(C(=O)Nc3cccc(SC(F)(F)F)c3)cc2)sc1C(=O)c1c(F)cccc1F [Example G377] |  |  | 10 | −1 |  | 25 | 55 | 
CSc1ccccc1NC(=O)c1ccc(Nc2nc(N)c(C(=O)c3c(F)cccc3F)s2)cc1 [Example G31] | 4 | 4 |  |  | 75 |  |  | 
Cc1cccc(CN(C)C(=O)c2ccc(Nc3nc(N)c(C(=O)c4c(F)cccc4F)s3)cc2)n1 [Example G315] |  |  | −1 | 11 |  | 7 | 50 | 
Nc1nc(Nc2ccc(C(=O)Nc3ccc(Cl)cc3)cc2)sc1C(=O)c1c(F)cccc1F [Example G288] |  |  | −10 | 11 |  | 16 | 60 | 
Nc1nc(Nc2ccc(C(=O)NC(CO)c3ccccc3)cc2)sc1C(=O)c1c(F)cccc1F (stereo not shown) [Example G155] | 32 | 38 |  |  |  |  |  | HCT-116 % Inhibition at 0.1 μM (HCT-116 cell line; HCT-116, at 0.1 μM): 0%; HCT-116 % Inhibition at 0.25 μM (HCT-116 cell line; HCT-116, at 0.25 μM, 0.25 µM): 67%
Nc1nc(Nc2ccc(C(=O)Nc3ccc(Cl)c(Cl)c3)cc2)sc1C(=O)c1c(F)cccc1F [Example G84] | 9 | 3 |  |  | 63 |  |  | 
CN(C)CCNC(=O)c1ccc(Nc2nc(N)c(C(=O)c3c(F)cccc3F)s2)cc1 [Example A4] |  |  |  |  |  |  |  | Ki (CDK2/cyclin A): 230 nM; Ki (human CDK4/cyclin D3): 16 nM; IC50 (HCT-116 cell line): 190 nM
CCC(C)CN(CCO)C(=O)c1ccc(Nc2nc(N)c(C(=O)c3c(F)cccc3F)s2)cc1 (stereo not shown) [Example G299] |  |  | −11 | −7 |  | 10 | 49 | 
NC(=O)CNC(=O)c1ccc(Nc2nc(N)c(C(=O)c3c(Cl)cccc3Cl)s2)cc1 [Example B1, 4-[4-Amino-5-(2,6-dichloro-benzoyl)-thiazol-2-ylamino]-N-carbamoylmethyl-benzamide] |  |  |  |  |  |  |  | Ki (CDK2/cyclin A): 65 nM; Ki (human CDK4/cyclin D3): 17 nM; IC50 (HCT-116 cell line): 18000 nM
Nc1nc(Nc2ccc(C(=O)NCCO)cc2)sc1C(=O)c1c(Cl)cccc1Cl [Example B2, 4-[4-Amino-5-(2,6-dichloro-benzoyl)-thiazol-2-ylamino]-N-(2-hydroxy-ethyl)-benzamide] |  |  |  |  |  |  |  | Ki (CDK2/cyclin A): 96 nM; Ki (human CDK4/cyclin D3): 18 nM; IC50 (HCT-116 cell line): 3600 nM
Cc1cc(NC(=O)c2ccc(Nc3nc(N)c(C(=O)c4c(F)cccc4F)s3)cc2)ccc1C(C)C [Example G107] | −5 | 12 |  |  | 59 |  |  | HCT-116 % Inhibition at 0.1 μM (HCT-116 cell line; HCT-116, at 0.1 μM): 5%
CN(C(=O)c1ccc(Nc2nc(N)c(C(=O)c3c(F)cccc3F)s2)cc1)C1CCCCC1 [Example G187] | −2 | 12 |  |  | 48 |  |  | HCT-116 % Inhibition at 0.1 μM (HCT-116 cell line; HCT-116, at 0.1 μM): 16%
Cc1ccsc1C(=O)c1sc(Nc2ccc(C(=O)NC[C@@H]3CCCN3C)cc2)nc1N [Example A70, 4-{4-Amino-5-[1-(3-methyl-thiophen-2-yl)-methanoyl]-thiazol-2-ylamino}-N-(1-methyl-pyrrolidin-2S-ylmethyl)-benzamide] |  |  |  |  |  |  |  | Ki (CDK2/cyclin A): 6.1 nM; Ki (human CDK4/cyclin D3): 128 nM; IC50 (HCT-116 cell line): 23 nM
CSCCC(O)NC(=O)c1ccc(Nc2nc(N)c(C(=O)c3c(F)cccc3F)s2)cc1 (stereo not shown) [Example G108] | −5 | 12 |  |  | 60 |  |  | HCT-116 % Inhibition at 0.1 μM (HCT-116 cell line; HCT-116, at 0.1 μM): 0%
Nc1nc(Nc2ccc(C(=O)NC3CC3)cc2)sc1C(=O)c1c(F)cccc1F [Example G123] | −5 | 12 |  |  | 50 |  |  | HCT-116 % Inhibition at 0.1 μM (HCT-116 cell line; HCT-116, at 0.1 μM): 4%
CCN1CCC[C@H]1CNC(=O)c1ccc(Nc2nc(N)c(C(=O)c3c(F)cccc3F)s2)cc1 [Example A38, 4-[4-Amino-5-(2,6-difluoro-benzoyl)-thiazol-2-ylamino]-N-(1-ethyl-pyrrolidin-2S-yl-methyl)-benzamide] |  |  |  |  |  |  |  | Ki (CDK2/cyclin A): 140 nM; Ki (human CDK4/cyclin D3): 24 nM; IC50 (HCT-116 cell line): 100 nM
CC(C)N(CCNC(=O)c1ccc(Nc2nc(N)c(C(=O)c3c(F)cccc3F)s2)cc1)C(C)C [Example A23, 4-[4-Amino-5-(2,6-difluoro-benzoyl)-thiazol-2-ylamino]-N-(2-diisopropylamino-ethyl)-benzamide] |  |  |  |  |  |  |  | Ki (CDK2/cyclin A): 130 nM; Ki (human CDK4/cyclin D3): 8 nM; IC50 (HCT-116 cell line): 100 nM
Nc1nc(Nc2ccc(C(=O)N3CCN(CCc4cccs4)CC3)cc2)sc1C(=O)c1c(F)cccc1F [Example G395] |  |  | 17 | 15 |  | 19 | 48 | 

Second part, led by results:

CDK2 % Inhibition at 0.03 μM (CDK2/cyclin A; at 0.03 μM) [%] | CDK4 % Inhibition at 0.03 μM (human CDK4/cyclin D3; at 0.03 μM) [%] | CDK2 % Inhibition at 0.03 μM (CDK2/cyclin A; 0.03 μM compound) [%] | CDK4 % Inhibition at 0.03 μM (human CDK4/cyclin D3; 0.03 μM compound) [%] | SMILES | HCT-116 % Inhibition at 0.25 μM (HCT-116 cell line; HCT-116, at 0.25 μM) [%] | HCT-116 % Inhibition at 0.1 μM (HCT-116 cell line; HCT-116 cells, 0.1 μM compound) [%] | HCT-116 % Inhibition at 0.25 μM (HCT-116 cell line; [1]) [%] | other results
 |  | 39 | 40 | Nc1nc(Nc2ccc(C(=O)NCc3ccco3)cc2)sc1C(=O)c1c(F)cccc1F [Example G249] |  | 37 | 80 | 
15 | 31 |  |  | CC(CO)NC(=O)c1ccc(Nc2nc(N)c(C(=O)c3c(F)cccc3F)s2)cc1 (stereo not shown) [Example G175] |  |  |  | HCT-116 % Inhibition at 0.1 μM (HCT-116 cell line; HCT-116, at 0.1 μM, 0.1 µM): 11%; HCT-116 % Inhibition at 0.25 μM (HCT-116 cell line; HCT-116, at 0.25 μM, 0.25 µM): 47%
−10 | 5 |  |  | CC(C)NC(=O)c1ccc(Nc2nc(N)c(C(=O)c3c(F)cccc3F)s2)cc1 [Example G96] | 56 |  |  | HCT-116 % Inhibition at 0.1 μM (HCT-116 cell line; HCT-116, at 0.1 μM): 20%
 |  | 23 | 32 | Nc1nc(Nc2ccc(C(=O)NCc3cccc(C(F)(F)F)c3)cc2)sc1C(=O)c1c(F)cccc1F [Example G293] |  | 10 | 56 | 
 |  | 45 | 23 | Nc1ccccc1CNC(=O)c1ccc(Nc2nc(N)c(C(=O)c3c(F)cccc3F)s2)cc1 [Example G384] |  | 38 | 84 | 
23 | 18 |  |  | Nc1nc(Nc2ccc(C(=O)Nc3ccc(O)cc3)cc2)sc1C(=O)c1c(F)cccc1F [Example G74] | 78 |  |  | 
 |  | −21 | 6 | Nc1nc(Nc2ccc(C(=O)NCCc3c(Cl)cccc3Cl)cc2)sc1C(=O)c1c(F)cccc1F [Example G372] |  | 19 | 51 | 
 |  | 13 | 18 | CCOc1ccccc1CNC(=O)c1ccc(Nc2nc(N)c(C(=O)c3c(F)cccc3F)s2)cc1 [Example G285] |  | 1 | 60 | 
 |  | −2 | 17 | Nc1nc(Nc2ccc(C(=O)NCC(O)CO)cc2)sc1C(=O)c1c(F)cccc1F (stereo not shown) [Example G279] |  | 2 | 52 | 
2 | 25 |  |  | NC(=O)CCNC(=O)c1ccc(Nc2nc(N)c(C(=O)c3c(F)cccc3F)s2)cc1 [Example G137] | 59 |  |  | HCT-116 % Inhibition at 0.1 μM (HCT-116 cell line; HCT-116, at 0.1 μM): 0%
 |  | −6 | 11 | Nc1nc(Nc2ccc(C(=O)NCCc3cccc(F)c3)cc2)sc1C(=O)c1c(F)cccc1F [Example G349] |  | 31 | 48 | 

Source: patent US6720346B2, “Thiazole benzamide derivatives and pharmaceutical compositions for inhibiting cell proliferation” (Agouron Pharmaceuticals, Inc., priority 2001, dated 2004)
